Here are results for one substance from patent US20250346643A1, “TROPOMYOSIN KINASE RECEPTOR (TRK) LIGANDS AS THERAPEUTICS TO SUPPORT LIVER REGENERATION” (Vanderbilt University, priority 2024, published 2025).

Assay [1] deals with HSC-depleted mice (liver). Briefly: Treatment of HSC-depleted mice with recombinant NTF3. The assay is classed as in vivo, mouse. How it is done:
T cell isolation and adoptive transfer. CD8+ T cells were isolated from spleen and lymph nodes (brachial, inguinal, axillar, submandibular, superficial cervical and mesenteric) of Jedi and controls. Spleens and lymph nodes were collected in ice cold T cell media (RPMI [Gibco® 11875-093] supplemented by 10% FBS, 2 mM L-glutamine [Thermo Fisher Scientific, Waltham, MA; 25030-081], 1% MEM nonessential amino acids [Thermo Fisher Scientific, Waltham, MA; 11140050] and 1 mM sodium pyruvate [Thermo Fisher Scientific, Waltham, MA; 11360-070]). Spleen and lymph nodes were mechanically homogenized and filtered through a 70 μm cell strainer (Falcon®). The cell suspension was centrifuged for 10 min at 4° C., 300 g. Red blood cell (RBC) lysis was performed with RBC buffer (Thermo Fisher Scientific, Waltham, MA; A10492). Cells were then washed with T cell media, filtered through a 70 μm cell strainer and centrifuged for 10 min at 4° C., 300 g. The cell pellet was then resuspended in flow buffer (PBS, pH 7.4, 2 mM EDTA, 0.05% BSA) and CD8+ T cells enriched using the mouse CD8+ T cell isolation kit (STEMCELL technologies, Vancouver, Canada; 19853A) according to the manufacturer's instructions. Enriched CD8+ T cells were centrifuged for 10 min at 4° C., 300 g, and resuspended in PBS. Mice with less than 25 g body weight were injected with up to 12 million Jedi T cells and mice greater than 25 g body weight were injected by tail vein injection with 18 million Jedi T cells. Control mice were injected with either T cells from H-2K^d mice or with vehicle only. Mice were not injected with lentiviral GFP particles as previously described (Agudo et al., Nat Biotechnol. 2015; 33(12): 1287-1292; Agudo et al., 2018; 48(2): 271-285.e5) to avoid lentiviral GFP-expression of other cells such as hepatocytes.
Treatment with recombinant NTF3. Four months old mice were injected via tail vein for 4 consecutive days with recombinant NTF3 (STEMCELL technology, Vancouver, Canada; cat. 78074, lots 1000070683, 1000077434) diluted in sterile 0.9% saline (0.9% NaCl) or vehicle only. Mice were weighed daily and recombinant NTF3 given at 20 ng/g body weight or 100 ng/g body weight, respectively. Lyophilized NTF3 was solubilized in 0.1% BSA/PBS (bovine serum albumin, Sigma-Aldrich, St. Louis, MO; A3059) and stored at −80° C. until use.
Immunohistochemistry. For immunohistochemistry, formalin-fixed paraffin embedded sections were cut at 4 μm thickness and slides incubated at 65° C. for 30 min. Slides were deparaffinized in Histo-Clear® (National Diagnostics, Charlotte, NC; HS2001GLL) and rehydrated by an ethanol gradient. Heat antigen retrieval was performed in 10 mM sodium citrate (pH 6.0) in a pressure cooker (Cuisinart®, CPC-600C), 20 min at high-pressure, natural pressure release for 30 min, and cooled at room temperature (i.e., about 20° C. to about 22° C.) for 30 min. Endogenous peroxidase quenching was performed with 1.5% hydrogen peroxide (Sigma-Aldrich, St. Louis, MO; H1009) for 20 min, and slides washed twice in phosphate buffered saline (PBS) twice. Blocking was performed for 30 min with Protein Block, Serum-free (Agilent, Santa Clara, CA; X090930-2). The primary antibody (TABLE 1) was diluted in antibody diluent (Agilent, Santa Clara, CA; S080983-2) and applied to the slides in a wet chamber overnight at 4° C. After 2 washes in PBS, slides were incubated with the appropriate secondary antibody (TABLE 1) for 30 min followed by two washes in PBS. […] The same reveal time was then used on all experimental slides. Slides were stained with hematoxylin (Sigma-Aldrich, St. Louis, MO; GHS332) for 30 sec, washed gently in lukewarm tap water for 5 min, and washed twice in distilled water, followed by two washes in phosphate buffered saline (PBS, pH 7.4). Slides were washed in increasing ethanol/water gradients, followed by three washes in Histo-Clear®. […]

A further assay concerns AML12 cells. Briefly: Cell proliferation assay (CellTiter-Glo) in AML12 cells. The settings on record: NTF3 20 ng/ml, AML12 (FIG. 9E-F). Type of assay: cell-based, mouse. As to the method:
(§1) Cell lines. Human HepG2 (ATCC HB-8065) were maintained in MEM media with 10% FBS and the mouse hepatocyte cell line AML12 (ATCC, Manassas, VA; CRL-2254) in DMEM/F12 media supplemented with dexamethasone (40 ng/ml) and Insulin-Transferrin-Selenium (Gibco, Waltham, MA; 41400045), containing 10% FBS and 1% penicillin and streptomycin. JS1 (RRID: CVCL_C7PL), LX2 (RRID: CVCL_5792, MilliporeSigma, Burlington, MA; SCC064) and TWNT4 (RRID: CVCL_W296) cells were cultured in DMEM supplemented with 10% FBS. 293T cells (ATCC, Manassas, VA; CRL-3216) were cultured in DMEM supplemented with 10% FBS.
(§2) Cell proliferation assays. Primary mouse hepatocytes, HepG2 or AML 12 cells were grown in opaque-walled 96-well plates. NTF3 (final concentration 20 ng/ml) (STEMCELL Technologies, Vancouver, Canada; cat. 78074) and/or Loxo-195 (final concentration 5 nM) (Selleckchem, Houston, TX; S8636) were added into complete growth media without L-glutamine. Primary mouse hepatocytes were also grown in serum-free William's E media without supplements. Cells were analyzed by CellTiter-Glo® (Promega G7570, Madison, WI) which detects the number of viable cells on day 0 to day 5 by on detection systems GloMax® (Promega) or Bioteck Synergy H1 (Agilent, Santa Clara, CA). Mouse recombinant HGF (Abcam, Cambridge, UK; ab281797) was added to cell culture media at a final concentration 5 ng/ml. […]

A further assay deals with HepG2 cells. Briefly: Cell proliferation assay (CellTiter-Glo) in HepG2 cells. Type of assay: cell-based, human. The settings on record: NTF3 20 ng/ml, HepG2 (FIG. 8G-H). As to the method:
as §1, §2
For orientation: ATP-based viability assays read luminescence as a measure of living cells.

Take “NTF3: neurotrophin-3, recombinant protein; HSC-derived hepatocyte mitogen, ligand of TRKA, TRKB, TRKC”: in assay [1] (HSC-ablated mice, NTF3), the “IGFBP2 expression in hepatocytes” value is recorded as “only increased CCND1 but not IGFBP2 expression”. Further, the liver-to-body weight ratio result in assay [1] (HSC-depleted mice, NTF3 20 ng/g or 100 ng/g body weight, tail vein, 4 consecutive days (FIG. 10C)) is on record as “dose-dependently increased”. Further, the “liver-to-body weight ratio, higher dose group” value in assay [1] (HSC-depleted mice, NTF3 100 ng/g body weight, 4 consecutive days) is recorded as “significant increase”. Further, in assay [1] (HSC-depleted mice, NTF3 20 or 100 ng/g (FIG. 10E-F)), the “number of CCND1+HNF4a+ nuclei (multiplex immunohistochemistry)” value is “dose-dependently increased”. In addition, in assay [1] (HSC-depleted mice, NTF3 vs vehicle (FIG. 10D)), the “nuclear CCND1 in hepatocytes in the midlobular region (staining)” value is given as “increased nuclear CCND1”. Besides, in assay [1] (HSC-depleted mice, NTF3 vs vehicle (FIG. 10G-H)), the “Ki67+ hepatocytes” value is given as “increase”. Also, the “PCNA in whole liver lysates (Western blotting)” value in assay [1] (HSC-depleted mice, NTF3 vs vehicle (FIG. 10I, 11B)) is given as “increased”. Moreover, the “CCND1 in whole liver lysates (Western blotting)” value in assay [1] (HSC-depleted mice, NTF3 vs vehicle (FIG. 10I, 11C)) is “increased”. The cell proliferation entry with AML12 cells and with HepG2 cells was “greatly stimulated cell proliferation” in each case.
